# From patent US20230365570A1, “COMPOUNDS WITH GLUCOCORTICOID SPARING EFFECTS AND USES THEREOF” (The Regents of the University of California, priority 2020, published 2023)
# Columns and labels:
# RA FLS [1] = test: Synergy of compound 1-1 with DEX in TNF stimulated RA FLS (isobologram); assay type: cell-based, human
# Description: Drug synergy analysis was performed using lsobologram plots which were calculated according to reported procedures to compute IC50 and determine synergism. IC50 is computed from the median effect equation. Synergism analysis is carried out using the Combination index (Cl)-isobol method. Data analysis was performed using the CompuSyn software available on combisyn.com, Detailed methodology was used as described in a prior report. […] This is followed by Cl-isobol method to quantitatively assess the synergism between these inhibitor drugs. […] From the median effect equation, the estimated dose (i.e., D) necessary to produce the inhibition (i.e., Fa, Fu) obtained by the combination was calculated. […]
# (§1) In the pathogenesis of rheumatoid arthritis, fibroblast-like synoviocytes (RA FLS) are a primary source of inflammatory cytokines and chemokines in inflamed joints. The immunomodulatory effects and cytotoxicity of compound 1-1 on RA FLS was analyzed. […] To assess the synergistic effect of compound 1-1 with DEX in RA FLS, IL-6 and CXCL8 suppression was analyzed by co-titrating DEX and compound 1-1 in cultures with TNF stimulated RA FLS (FIG. 7A, B).
# [2] = target: metabotropic glutamate receptor subtype 4 (mGluR4) (Homo sapiens, UniProt Q14833); conditions: previously described in another system; cited from earlier work
# Sequence of metabotropic glutamate receptor subtype 4 (mGluR4) (Q14833 33-912): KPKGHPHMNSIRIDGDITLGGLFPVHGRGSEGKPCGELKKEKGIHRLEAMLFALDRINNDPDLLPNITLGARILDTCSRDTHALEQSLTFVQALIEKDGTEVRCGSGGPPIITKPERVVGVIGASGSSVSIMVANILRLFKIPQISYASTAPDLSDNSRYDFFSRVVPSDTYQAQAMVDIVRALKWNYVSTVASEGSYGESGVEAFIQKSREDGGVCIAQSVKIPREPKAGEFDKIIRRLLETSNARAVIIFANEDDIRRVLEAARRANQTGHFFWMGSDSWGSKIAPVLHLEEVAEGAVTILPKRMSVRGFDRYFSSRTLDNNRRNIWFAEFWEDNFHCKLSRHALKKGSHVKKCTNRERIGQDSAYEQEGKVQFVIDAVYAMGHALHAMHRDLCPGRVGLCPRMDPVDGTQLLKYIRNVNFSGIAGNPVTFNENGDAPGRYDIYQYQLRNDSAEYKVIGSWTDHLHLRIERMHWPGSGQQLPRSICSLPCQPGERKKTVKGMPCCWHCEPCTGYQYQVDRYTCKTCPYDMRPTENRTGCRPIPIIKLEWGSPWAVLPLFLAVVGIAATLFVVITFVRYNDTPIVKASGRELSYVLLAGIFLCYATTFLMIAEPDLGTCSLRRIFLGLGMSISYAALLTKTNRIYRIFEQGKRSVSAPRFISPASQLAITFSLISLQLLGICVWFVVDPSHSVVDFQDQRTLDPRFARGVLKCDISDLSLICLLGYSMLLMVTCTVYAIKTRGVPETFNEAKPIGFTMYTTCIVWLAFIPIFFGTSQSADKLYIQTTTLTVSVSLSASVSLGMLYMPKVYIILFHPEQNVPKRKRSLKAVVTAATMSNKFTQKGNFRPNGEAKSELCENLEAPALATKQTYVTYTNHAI
# THP-1 cells [3] = test: IL-1ß stimulated TNF release by THP-1 cells; assay type: cell-based, human; conditions: THP-1 cells, IL-1ß 2 ng/ml, overnight (FIG. 3D)
# Description: (§2) THP-1 cells (10^5 cells/200 μL/well) and RA FLS (104/200 μL/well) were plated in 96 well plates and pre-treated with compound or vehicle for 1 h and then stimulated with either LPS (10 ng/ml), 1L-1ß (2 ng/ml) or TNF (2 ng/ml for THP-1 and 1 ng/ml for RA FLS). After 18 h of incubation, supernatants were collected and the levels of cytokines and chemokines in the culture supernatants were measured by ELISA according to the manufacturer's protocols (R&D systems, Minneapolis, MN).
# (§3) The lead compounds belonging to chemotypes 1, 3, and 5 were tested for potency in suppressing chemokine and cytokine production by THP-1 cells in the presence of different inflammatory stimuli. The production of CXCL8 induced by either LPS (10 ng/ml), IL-1ß (2 ng/ml), or TNF (2 ng/ml) and TNF induced by IL-1ß (2 ng/ml) was assessed using serially diluted compounds. The compounds except 1-2 reduced the level of CXCL8 production stimulated by LPS in a dose dependent manner (FIG. 3A). However, the compounds from chemotype 5 enhanced CXCL8 release by THP-1 cells when stimulated with IL-111, or TNF (FIGS. 3B, C). […] The 1Cs0 for 1-1, 1-2 and 3-1 for IL-1ß stimulated CXCL8 release included 400, 1770, and 2020 nM, respectively, (FIG. 3C).
# THP-1 cells [4] = test: TNF stimulated CXCL8 release by THP-1 cells; assay type: cell-based, human; conditions: TNF 2 ng/ml, overnight (FIG. 3B)
# Description: as §2, §3
# THP-1 cells [5] = test: Cell viability by MTT assay in THP-1 cells; assay type: cell-based, human; conditions: purchased compound
# Description: Two types of tetrazolium were used for viability assays. […] After 18 h of incubation, 0.5 mg/ml 3[4,5-dimethylthiazol-2-yl]-2,5-dipheyl tetrazolium bromide (MTT; Thermo Fisher Scientific) in assay media was added to each well at a final concentration of (0.5 mg/ml) and further incubated for 4-6 h. The absorbances at 570 and 650 nm were measured by a Tecan Infinite M200 plate reader, For RA FLS, the cells were dispersed into 96-well flat bottom plates (104/200 μL/well) and incubated overnight. The next day, RA FLS were treated with 5 μM of each compound for 18 h of incubation. Ten μl of WST-8 [2-(2-methoxy-4-nitrophenyl)-3-(4-nitrophenyl)-5-(2,4-disulfophewnyl)-2H-tetrazolium, monosodium salt] solution was added to each well and the cells were further incubated for 2-4 h. The absorbance was measured at 450 nm with Bio-Rad iMark plate reader (Bio-Rad Laboratories Inc., Hercules, CA, Unites States).
# RA FLS [6] = test: Chemokine and cytokine production by TNF stimulated RA FLS; assay type: cell-based, human
# Text: Rheumatoid arthritis fibroblast-like synoviocytes (RA FLS) were isolated from synovial tissues derived from patients with RA when they underwent joint replacement surgery or synovectomy. Patients were age ≥18 years with active RA based on the ACR 1987 Revised Criteria and consent forms were completed by the patients before surgery. The study protocol was approved by the institutional review board at TokyoMedical andDental University, Tokyo, Japan and are in accordance with the principles of the Declaration of Helsinki. RA FLS were cultured in DMEM supplemented with 10% FBS, 100 U/mL penicillin, and 100 μg/mL streptomycin in a humidified 5% CO2 incubator. All experiments used proliferating RA FLS.
# as §2, §1
smiles,measurement,setting,value
Cc1ccc(-n2ncc3c(NC4CCCCC4)ncnc32)c(C)c1 [Compound 1-1],"Synergistic effect with DEX, CXCL8 release",RA FLS [1]; isobologram (FIG. 7C),synergistic effects
same,"Synergistic effect with DEX, IL-6 release",RA FLS [1]; isobologram (FIG. 7D),synergistic effects
same,Modulation of mGluR4,[2],positive allosteric modulator
same,IC50,THP-1 cells [3],190 nM
same,IC50,THP-1 cells [4],900 nM
same,% Cellular Viability (Purchased),THP-1 cells [5],98.7%
same,CCL2 production induced by TNF,RA FLS [6]; TNF 1 ng/ml overnight,dose-dependently suppressed
same,CXCL1 production induced by TNF,RA FLS [6]; TNF 1 ng/ml overnight,dose-dependently suppressed
same,CXCL8 production induced by TNF,RA FLS [6]; TNF 1 ng/ml overnight,dose-dependently suppressed
same,IL-6 production induced by TNF,RA FLS [6]; TNF 1 ng/ml overnight,dose-dependently suppressed
same,MMP-3 production induced by TNF,RA FLS [6]; TNF 1 ng/ml overnight,not
same,IC50 in RA FLS,RA FLS [6]; comparable to that in THP-1,micromolar level
